# Laboratory results taken from patent US8158640B2, “Tetrahydroquinoline derivatives and a process for preparing the same” (Mitsubishi Tanabe Pharma Corporation, priority 2005, dated 2012).
# Biological target: T1, CETP (Homo sapiens, UniProt P11597)
# T1 construct: from tissue; host or cells: plasma from a healthy volunteer
# T1 sequence (P11597 18-493): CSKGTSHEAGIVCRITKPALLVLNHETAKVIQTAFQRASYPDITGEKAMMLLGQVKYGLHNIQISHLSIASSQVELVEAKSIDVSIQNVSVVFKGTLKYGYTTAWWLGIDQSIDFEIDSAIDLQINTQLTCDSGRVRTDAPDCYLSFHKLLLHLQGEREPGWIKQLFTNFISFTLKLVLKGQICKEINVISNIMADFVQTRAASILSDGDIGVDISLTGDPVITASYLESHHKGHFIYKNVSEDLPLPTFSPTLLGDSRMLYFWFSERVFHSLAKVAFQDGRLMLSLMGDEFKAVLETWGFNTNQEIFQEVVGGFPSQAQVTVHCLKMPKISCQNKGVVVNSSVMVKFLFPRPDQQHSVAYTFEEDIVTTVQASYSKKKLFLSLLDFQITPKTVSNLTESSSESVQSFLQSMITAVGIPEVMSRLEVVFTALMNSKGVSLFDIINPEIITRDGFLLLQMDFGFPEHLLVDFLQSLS
# Experiment: Inhibitory activity against CETP in vitro (fluorescent BODIPY-CE transfer, donor/acceptor microemulsion, human plasma)
# Type: biochemical
# Details: plasma from a healthy volunteer diluted to 0.64%; preincubation with test solution 37° C. 24 hours, then 3 hours with donor/acceptor microemulsion; fluorescence Ex.550 nm/Em.600 nm; read-out: IC50 (inhibition of CETP activity)
# Method: The inhibitory activity of the compounds of the present invention against CETP was tested in this experiment.
# A solution of 1-Palmitoyl-2-oleoyl-sn-glycero-3-phosphocholine (3.5 mg), cholesteryl oleate (3 mg) and triolein (0.7 mg) in chloroform was mixed and lipid was air-dried under nitrogen gas to remove solvent. 1,4-Dioxane (0.25 ml) was then added and the mixture was stirred for dissolution. The resultant lipid solution (0.2 ml) was slowly injected under the surface of Tris-saline-EDTA(TSE) buffer solution [10 mM Tris/HCl (pH 7.4), 0.15M NaCl, 2 mM EDTA] (10 ml) with Hamilton syringe, while sonicating in ice-bath. After 1-hour-sonication in ice-bath, the solution was stored at 4° C.
# A solution of egg PC (phosphatidylcholine) (0.33 mg) and BODIPY-CE (0.62 mg) in chloroform was mixed. After removing solvent by air-drying lipid under nitrogen gas, TSE buffer solution (3 ml) was added and the solution was sonicated in ice-bath. This solution was filtered to sterilize through 0.22 μm filter and stored at 4° C.
# A test solution was prepared using dimethyl sulfoxide as a solvent. Plasma from a healthy volunteer was diluted to 0.64% with TSE buffer, and to the resultant plasma solution (187 μl) was added a test solution (3 μl) or the solvent alone followed by incubation at 37° C. for 24 hours. After addition of TSE buffer solution (10 μl) containing 5% donor micro-emulsion and 5% acceptor microemulsion, the mixture was incubated at 37° C. for 3 hours. […] CETP activity was defined as the difference between the measurements obtained before incubation and after incubation. The decreasing rate of the difference in the sample was defined as the inhibition rate of CETP activity. IC50 for each sample was calculated from the inhibition rate of CETP activity.
row,Compound,IC50 [nM]
1,"(2R,4S)-4-{[3,5-bis(trifluoromethyl)benzyl]-[5-(morpholin-4-yl)pyrimidin-2-yl]}amino-2-ethyl-6-trifluoromethyl-3,4-dihydro-2H-quinoline-1-carboxylic acid 5-carboxypentyl ester [Example 275]",0.18
2,"(2R,4S)-4-{[3,5-bis(trifluoromethyl)-benzyl]-(5-carboxypyrimidin-2-yl)}amino-2-ethyl-6-trifluoromethyl-3,4-dihydro-2H-quinoline-1-carboxylic acid ethyl ester [Example 16]",4.2
3,CCOC(=O)N1c2ccc(C(F)(F)F)cc2[C@@H](N(Cc2cc(C(F)(F)F)cc(C(F)(F)F)c2)c2ncc(N(C)CCC(=O)O)cn2)C[C@H]1CC [Example 127],0.89
4,"CCOC(=O)N1c2ccc(C(F)(F)F)cc2[C@@H](N(Cc2cc(C#N)cc(C(F)(F)F)c2)c2ncc(N3CCC(C(=O)O)CC3)cn2)C[C@H]1CC [Example 235, (2R,4S)-4-{[5-(4-carboxypiperidin-1-yl)pyrimidin-2-yl]-(3-cyano-5-trifluoromethylbenzyl)}amino-2-ethyl-6-trifluoromethyl-3,4-dihydro-2H-quinoline-1-carboxylic acid ethyl ester]",2.7
5,"CCOC(=O)N1c2ccc(C(F)(F)F)cc2[C@@H](N(Cc2cc(C(F)(F)F)cc(C(F)(F)F)c2)c2ccc(OCCCC(=O)O)cn2)C[C@H]1CC [Example 231, (2R,4S)-4-{[3,5-bis(trifluoromethyl)benzyl]-[5-(3-carboxypropoxy)pyridin-2-yl]}amino-2-ethyl-6-trifluoromethyl-3,4-dihydro-2H-quinoline-1-carboxylic acid ethyl ester]",0.53
6,"(2R,4S)-4-{[3,5-bis(trifluoromethyl)benzyl]-[5-(morpholin-4-yl)-pyrimidin-2-yl]}amino-2-ethyl-6-trifluoromethyl-3,4-dihydro-2H-quinoline-1-carboxylic acid ethyl ester [Example 1]",0.17
7,"(2R*,4S*)-4-{[3,5-bis(trifluoromethyl)benzyl]-[(5-morpholin-4-yl)pyrimidin-2-yl]}amino-2-ethyl-6-trifluoromethyl-3,4-dihydro-2H-quinoline-1-carboxylic acid 2-hydroxyethyl ester [Example 174]",0.23
8,"(2R,4S)-4-{[3,5-bis(trifluoromethyl)benzyl]-[5-(2-methoxyethoxy)pyrimidin-2-yl]}amino-2-ethyl-6-trifluoromethyl-3,4-dihydro-2H-quinoline-1-carboxylic acid 2-carboxyethyl ester [Example 291]",0.32
9,CCOC(=O)N1c2ccc(C(F)(F)F)cc2C(N(Cc2cc(C(F)(F)F)cc(C(F)(F)F)c2)c2ncc(OCCCCC(=O)O)cn2)CC1CC (stereo not drawn) [Example 198],0.66
